Assay results published in patent US8703165B2, “Spiro fused 1-amino-piperdine pyrrolidine dione derivatives with pesticidal activity” (Syngenta Crop Protection, Inc., priority 2009, dated 2014).

- melting point: > 200 °C
Compound: Cc1cc(C)c(C2C(=O)OC3(CCN(N(C)C)CC3)C2=O)c(C)c1 (stereo not shown) [A11, 8-Dimethylamino-3-(2,4,6-trimethyl-phenyl)-1-oxa-8-azaspiro[4.5]decane-2,4-dione]
